This experiment has as its system RSV ATCC VR-1540 (A2). The experiment in a line: microbe, parasite or virus in culture. In kind it is cell-based. The conditions noted are these: human respiratory syncytial virus, HEp-2, 96 h; Hep2 cells, incubated for 4 days, CPE detected with XTT assay (absorbance 450 nm); read-out: EC50 (nmol/L) against RSV A2 strain.
For the compound `CN1CCNC(C(F)(F)F)COc2ccc(Cl)cc2C(=O)N2CCCCC2c2cc3nc(N4CC(N)C4)cc1n3n2` (single isomer, unassigned) [Example 338], the EC50 was found to be 2.37 nmol/L.
As to `CCC1c2cc3nc(N4CCC(N)C4)cc(n3n2)N(C)CCCCCOc2ccc(C)cc2C(=O)N1C` (stereo in doubt) [Example 230, (18S)-3-[(3S)-3-aminopyrrolidin-1-yl]-18-ethyl-5,14,17-trimethyl-5,6,7,8,9,10,17,18-octahydro-16H-19,1-(metheno)pyrimido[6,1-h][1,7,9,10,13]benzoxatetraazacyclohexadecin-16-one], the EC50 stood at 11.8 nmol/L.
In the case of `CN1CCNC(=O)COc2ccc(F)cc2C(=O)N2CCCC[C@H]2c2cc3nc(N4CC(O)C4)cc1n3n2` [Example 3, (18aS)-2-fluoro-13-(3-hydroxyazetidin-1-yl)-J 1-methyl-8,9,10,11,19,20,21,22-octahydro-18aH,24H-18,15-(metheno)pyrido[2,1-l]pyrimido[6,1-h][1,4,7,9,10,13]benzoxapentaazacyclohexadecine-7,24(6H)-dione] it was roughly 0.81 nmol/L; in that of `CN1CCNC(=O)COc2ccc(F)cc2C(=O)N2CCCC[C@H]2c2cc3nc(N4CC(N)C4)cc1n3n2` [Example 4, (18aS)-13-(3-aminoazetidin-1-yl)-2-fluoro-11-methyl-8,9,10,11,19,20,21,22-octahydro-18aH,24H-18,15-(metheno)pyrido[2,1-l]pyrimido[6,1-h][1,4,7,9,10,13]benzoxapentaazacyclohexadecine-7,24(6H)-dione], 2.71 nmol/L.
In the case of `CNC1CN(c2cc3n4nc(cc4n2)[C@@H]2CCCCN2C(=O)c2cc(F)ccc2OCC(=O)NCCN3C)C1` [Example 5, (18aS)-2-fluoro-11-methyl-13-[3-(methylamino)azetidin-1-yl]-8,9,10,11,19,20,21,22-octahydro-18aH,24H-18,15-(metheno)pyrido[2,1-l]pyrimido[6,1-h][1,4,7,9,10,13]benzoxapentaazacyclohexadecine-7,24(6H)-dione] it was 7.02 nmol/L; in that of `CN1CCN(C)c2cc(N3CC(N)C3)nc3cc(nn23)[C@@H]2CCCCN2C(=O)c2cc(F)ccc2OCC1=O` [Example 8, (18aS)-13-(3-aminoazetidin-1-yl)-2-fluoro-8,11-dimethyl-8,9,10,11,19,20,21,22-octahydro-18aH,24H-18,15-(metheno)pyrido[2,1-l]pyrimido[6,1-h][1,4,7,9,10,13]benzoxapentaazacyclohexadecine-7,24(6H)-dione], 6.3 nmol/L.
To `CCN1CCN(C)c2cc(N3CC(N)C3)nc3cc(nn23)[C@@H]2CCCCN2C(=O)c2cc(F)ccc2OCC1=O` [Example 9, (18aS)-13-(3-aminoazetidin-1-yl)-8-ethyl-2-fluoro-11-methyl-8,9,10,11,19,20,21,22-octahydro-18aH,24H-18,15-(metheno)pyrido[2,1-l]pyrimido[6,1-h][1,4,7,9,10,13]benzoxapentaazacyclohexadecine-7,24(6H)-dione] belongs 6.34 nmol/L; to `CN1CC(C)(C)NC(=O)COc2ccc(F)cc2C(=O)N2CCCC[C@H]2c2cc3nc(N4CC(N)C4)cc1n3n2` [Example 11, (18aS)-13-(3-aminoazetidin-1-yl)-2-fluoro-9,9,11-trimethyl-8,9,10,11,19,20,21,22-octahydro-18aH,24H-18,15-(metheno)pyrido[2,1-l]pyrimido[6,1-h][1,4,7,9,10,13]benzoxapentaazacyclohexadecine-7,24(6H)-dione], 1.56 nmol/L; to `CC1Oc2ccc(F)cc2C(=O)N2CCCCC2c2cc3nc(N4CC(N)C4)cc(n3n2)N(C)CCNC1=O` [Example 12, (18aS)-13-(3-aminoazetidin-1-yl)-2-fluoro-6,11-dimethyl-8,9,10,11,19,20,21,22-octahydro-18aH,24H-18,15-(metheno)pyrido[2,1-l]pyrimido[6,1-h][1,4,7,9,10,13]benzoxapentaazacyclohexadecine-7,24(6H)-dione], roughly 2 nmol/L.
